In patent publication US20100075368A1, “Media for recovery of microorganism in the presence of antibiotics” (Millipore Corporation, priority 2004, published 2010):

Tests used:
Type in all cases: cell-based
[1] = test system: P. aeruginosa (ATCC 9027); test: Simulated air monitoring: antibiotic disc zone of inhibition on SCDA; conditions: Pseudomonas aeruginosa, disc: ofloxacin 5 ug
Experimental: (§1) One method of monitoring air in an antibiotic manufacturing plant is to impact air onto an agar surface collecting both microorganisms and antibiotic on the agar surface. This test was simulated by spreading microorganisms over an agar surface containing varying amounts of magnesium cation and then placing disks containing antibiotics onto the agar surface. The zone of inhibition around each disk was measured to give an indication of the ability of the medium to neutralize the effect of the antibiotic (method followed is similar to the susceptibility disc test used in clinical microbiology). S. aureus (ATCC 6538), P. aeruginosa (ATCC 9027) or E. coli (ATCC 25922) were spread on the agar surface of SCDA containing 0.1M, 0.2M, 0.3M, 0.4M or 0.5M magnesium cation. Discs impregnated with a known amount of antibiotic were then placed onto the bacteria on the agar plate. Plates were incubated and the zone of inhibition of bacterial growth was measured.

[2] = test system: E. coli (ATCC 25922); test: as above; conditions: Escherichia coli, disc: ofloxacin 5 ug
Experimental: as §1

[3] = test system: S. aureus (ATCC 6538); test: as above; conditions: Staphylococcus aureus, disc: ofloxacin 5 ug
Experimental: as §1

[4] = test system: S. aureus (ATCC 6538); test: Direct inoculation of SCDB broth tubes, growth in presence of antibiotic; conditions: ciprofloxacin 100 μg/mL in SCDB, 200 cfu
Experimental: Test tubes containing SCDB media in the presence or absence of magnesium cation or ciprofloxacin antibiotic were inoculated with 200 colony forming units (cfu) of S. aureus (ATCC 6538). Sample A was used with a ciprofloxacin sample (100 μg/mL) and contained no divalent cation constituent. B was used with ciprofloxacin (100 μg/mL) and contained 0.5 M magnesium cation. C was used with a control and contained 0.5M of the same divalent cation of B. D was used with a control and contained no divalent cation.

[5] = ATCC9027, 0.0 M cation in SCDA, streptomycin 10 ug, doxycycline 30 ug
[6] = ATCC9027, 0.1M magnesium cation in SCDA, streptomycin 10 ug, doxycycline 30 ug
[7] = ATCC9027, 0.3M magnesium cation in SCDA, streptomycin 10 ug, doxycycline 30 ug
[8] = ATCC9027, 0.5M magnesium cation in SCDA, streptomycin 10 ug, doxycycline 30 ug
[9] = ATCC25922, 0.0 M cation in SCDA, streptomycin 10 ug, doxycycline 30 ug
[10] = ATCC25922, 0.1M magnesium cation in SCDA, streptomycin 10 ug, doxycycline 30 ug
[11] = ATCC25922, 0.3M magnesium cation in SCDA, streptomycin 10 ug, doxycycline 30 ug
[12] = ATCC25922, 0.5M magnesium cation in SCDA, streptomycin 10 ug, doxycycline 30 ug
[13] = ATCC6538, 0.0 M cation in SCDA, streptomycin 10 ug, doxycycline 30 ug
[14] = ATCC6538, 0.1M magnesium cation in SCDA, streptomycin 10 ug, doxycycline 30 ug
[15] = ATCC6538, 0.3M magnesium cation in SCDA, streptomycin 10 ug, doxycycline 30 ug
[16] = ATCC6538, 0.5M magnesium cation in SCDA, streptomycin 10 ug, doxycycline 30 ug

Q: With `CC1COc2c(N3CCN(C)CC3)c(F)cc3c(=O)c(C(=O)O)cn1c23` (centres unmarked) [Ofloxacin, ofloxacin] as the compound, how does the zone of inhibition at 5 µg/disc [1, 5] read?
A: Its zone of inhibition at 5 µg/disc is 20 mm.

Q: What about the zone of inhibition at 5 µg/disc [1, 6] of the same compound?
A: Its zone of inhibition at 5 µg/disc is 6 mm.

Q: And the zone of inhibition at 5 µg/disc ([1]; ATCC9027, 0.2M magnesium cation in SCDA)?
A: Its zone of inhibition at 5 µg/disc is 6 mm.

Q: And the zone of inhibition at 5 µg/disc [1, 7]?
A: The zone of inhibition at 5 µg/disc was 6 mm.

Q: And the zone of inhibition at 5 µg/disc ([1]; ATCC9027, 0.4M magnesium cation in SCDA)?
A: The zone of inhibition at 5 µg/disc was 6 mm.

Q: And the zone of inhibition at 5 µg/disc [1, 8]?
A: Its zone of inhibition at 5 µg/disc is 6 mm.

Q: What about the zone of inhibition at 5 µg/disc [2, 9] of the same compound?
A: The zone of inhibition at 5 µg/disc was 26 mm.

Q: What about the zone of inhibition at 5 µg/disc [2, 10] of the same compound?
A: Its zone of inhibition at 5 µg/disc is 13 mm.

Q: What about the zone of inhibition at 5 µg/disc ([2]; ATCC25922, 0.2M magnesium cation in SCDA) of the same compound?
A: The zone of inhibition at 5 µg/disc was 13 mm.

Q: What about the zone of inhibition at 5 µg/disc [2, 11] of the same compound?
A: The zone of inhibition at 5 µg/disc was 13 mm.

Q: And the zone of inhibition at 5 µg/disc ([2]; ATCC25922, 0.4M magnesium cation in SCDA)?
A: The zone of inhibition at 5 µg/disc was 12 mm.

Q: And the zone of inhibition at 5 µg/disc [2, 12]?
A: The zone of inhibition at 5 µg/disc was 12 mm.

Q: And the zone of inhibition at 5 µg/disc [3, 13]?
A: The zone of inhibition at 5 µg/disc was 23 mm.

Q: What about the zone of inhibition at 5 µg/disc [3, 14] of the same compound?
A: The zone of inhibition at 5 µg/disc was 11 mm.

Q: And the zone of inhibition at 5 µg/disc ([3]; ATCC6538, 0.2M magnesium cation in SCDA)?
A: Its zone of inhibition at 5 µg/disc is 8 mm.

Q: And the zone of inhibition at 5 µg/disc [3, 15]?
A: Its zone of inhibition at 5 µg/disc is 6 mm.

Q: What about the zone of inhibition at 5 µg/disc ([3]; ATCC6538, 0.4M magnesium cation in SCDA) of the same compound?
A: The zone of inhibition at 5 µg/disc was 7 mm.

Q: And the zone of inhibition at 5 µg/disc [3, 16]?
A: Its zone of inhibition at 5 µg/disc is 6 mm.

Q: How did the zone of inhibition at 10 µg/disc [1, 5] turn out when `[H]/N=C(/N)N[C@H]1[C@H](O)[C@@H](O)[C@H](O[C@@H]2O[C@@H](C)[C@](O)(C=O)[C@H]2O[C@@H]2O[C@@H](CO)[C@H](O)[C@@H](O)[C@@H]2NC)[C@@H](N/C(N)=N\[H])[C@@H]1O` [Streptomycin, streptomycin] was run?
A: Its zone of inhibition at 10 µg/disc is 11 mm.

Q: What about the zone of inhibition at 10 µg/disc [1, 6] of the same compound?
A: Its zone of inhibition at 10 µg/disc is 6 mm.

Q: What about the zone of inhibition at 10 µg/disc [1, 7] of the same compound?
A: Its zone of inhibition at 10 µg/disc is 6 mm.

Q: And the zone of inhibition at 10 µg/disc [1, 8]?
A: The zone of inhibition at 10 µg/disc was 6 mm.

Q: And the zone of inhibition at 10 µg/disc [2, 9]?
A: Its zone of inhibition at 10 µg/disc is 14 mm.

Q: And the zone of inhibition at 10 µg/disc [2, 10]?
A: The zone of inhibition at 10 µg/disc was 12 mm.

Q: What about the zone of inhibition at 10 µg/disc [2, 11] of the same compound?
A: Its zone of inhibition at 10 µg/disc is 9 mm.

Q: And the zone of inhibition at 10 µg/disc [2, 12]?
A: Its zone of inhibition at 10 µg/disc is 6 mm.

Q: And the zone of inhibition at 10 µg/disc [3, 13]?
A: The zone of inhibition at 10 µg/disc was 17 mm.

Q: And the zone of inhibition at 10 µg/disc [3, 14]?
A: Its zone of inhibition at 10 µg/disc is 12 mm.

Q: What about the zone of inhibition at 10 µg/disc [3, 15] of the same compound?
A: The zone of inhibition at 10 µg/disc was 7 mm.

Q: What about the zone of inhibition at 10 µg/disc [3, 16] of the same compound?
A: The zone of inhibition at 10 µg/disc was 8 mm.

Q: How did the zone of inhibition at 30 µg/disc [1, 5] turn out when `C[C@H]1c2cccc(O)c2C(=O)C2=C(O)[C@]3(O)C(=O)C(C(N)=O)=C(O)[C@@H](N(C)C)[C@@H]3[C@@H](O)[C@@H]21` [Doxycycline, doxycycline] was run?
A: Its zone of inhibition at 30 µg/disc is 6 mm.

Q: What about the zone of inhibition at 30 µg/disc [1, 6] of the same compound?
A: Its zone of inhibition at 30 µg/disc is 6 mm.

Q: And the zone of inhibition at 30 µg/disc [1, 7]?
A: The zone of inhibition at 30 µg/disc was 6 mm.

Q: And the zone of inhibition at 30 µg/disc [1, 8]?
A: Its zone of inhibition at 30 µg/disc is 6 mm.

Q: What about the zone of inhibition at 30 µg/disc [2, 9] of the same compound?
A: The zone of inhibition at 30 µg/disc was 18 mm.

Q: What about the zone of inhibition at 30 µg/disc [2, 10] of the same compound?
A: Its zone of inhibition at 30 µg/disc is 6 mm.

Q: And the zone of inhibition at 30 µg/disc [2, 11]?
A: The zone of inhibition at 30 µg/disc was 6 mm.

Q: What about the zone of inhibition at 30 µg/disc [2, 12] of the same compound?
A: The zone of inhibition at 30 µg/disc was 6 mm.

Q: And the zone of inhibition at 30 µg/disc [3, 13]?
A: Its zone of inhibition at 30 µg/disc is 25 mm.

Q: And the zone of inhibition at 30 µg/disc [3, 14]?
A: The zone of inhibition at 30 µg/disc was 13 mm.

Q: And the zone of inhibition at 30 µg/disc [3, 15]?
A: The zone of inhibition at 30 µg/disc was 11 mm.

Q: What about the zone of inhibition at 30 µg/disc [3, 16] of the same compound?
A: Its zone of inhibition at 30 µg/disc is 13 mm.

Q: What does the source list for `O=C(O)c1cn(C2CC2)c2cc(N3CCNCC3)c(F)cc2c1=O` [Ciprofloxacin, ciprofloxacin]?
A: Result (growth of microorganism) ([4]; 0.5 M magnesium cation added to broth): Growth; Result (growth of microorganism) ([4]; divalent cation added to broth: None): No growth
